Patent US20240067637A1, “NAPHTHYRIDINE AND PYRIDO[3,4-c]PYRIDAZINE DERIVATIVES AS GABAA ALPHA 5 RECEPTOR MODULATORS” (Richter Gedeon Nyrt., priority 2020, published 2024)
pKi: −log10 of the molar value.

Target: human recombinant GABAA α5β3γ2 receptor (Homo sapiens (Human), UniProt P18507+P31644)
Assay: Radioligand ([3H]Ro151788) receptor binding assay
Details: membranes of HEK cells expressing human recombinant GABAA α5β3γ2; 0.5 nM [3H]Ro151788; 60 minutes at 4° C.; read-out: hGABAA α5 Ki
Experimental: The GABAA α5β3γ2 protein used for the receptor binding assay was derived from membranes produced from HEK cells (Millipore CYL3073) expressing the human recombinant GABAA α5β3γ2 receptor. Cells were stored and cultured in-house according to the instructions provided by the vendor (Millipore). Cell pellet was homogenized in 10 times modified Krebs Henseleit buffer (membrane preparation buffer): 20 mM Tris, 120 mM NaCl, 100 mM KCl, 25 mM CaCl2 and 25 mM MgCl2 pH=7.4 at 4° C. using Ultra Turrax (Janke&Kunkel) maximal speed for 15 seconds. The homogenate was centrifuged at 40,000 g for 30 minutes at 4° C. Supernatant was discarded and the resulting pellet was washed in membrane preparation buffer. Pellet was resuspended in membrane preparation buffer and aliquots of 1.4 mL ampules were stored at −70° C. until use.
Receptor binding assays were performed in 96-well format in deep-well plates. For each 96-well plate one ampule of membrane homogenate was thawed and diluted in binding buffer (50 mM Tris pH=7.4, 100 mM KCl) and 200 μL was dispensed into each well. Radioligand [^3H]Ro151788 (Perkin Elmer: NET757250UC) was prepared in binding buffer and added to each well in 50 μL volume to give final concentration of 0.5 nM. Test compounds in suitable concentration(s) were added in additional 50 μL. The final assay volume was 300 μL. Incubation was carried out for 60 minutes at 4° C. For non-specific binding 10 μM unlabeled diazepam was used. After incubation samples were filtered over UniFilter® GF/BT using Filtermate Harvester (Perkin Elmer) and washed with 5×1 mL binding buffer. The plate was dried at 40° C. for an hour and 40 μL Microscint (Perkin Elmer) scintillation cocktail was added to each well. The plate was read in Microbeta (Perkin Elmer).
The specific radioligand binding (SB) was defined as the difference between total binding (Tot) and the non-specific binding (NSB). Results are expressed as a percent inhibition of specific binding obtained in the presence of compound of interest.
For IC50 and Ki determination a minimum of six drug concentrations in triplicate were used. IC50 values (i.e. concentration of compound giving 50% inhibition of specific binding) were calculated from concentration-displacement curves by sigmoidal fitting using Origin 7.5 software. Ki values (i.e. inhibition constants) were calculated using the Cheng-Prusoff equation Ki=IC50/[1+(L/KD)], where [L] is the radioligand concentration and KD the affinity of the labelled ligand for receptor. KD was determined from the Saturation analyses.

Sequence of human recombinant GABAA α5β3γ2 receptor (P31644 32-462): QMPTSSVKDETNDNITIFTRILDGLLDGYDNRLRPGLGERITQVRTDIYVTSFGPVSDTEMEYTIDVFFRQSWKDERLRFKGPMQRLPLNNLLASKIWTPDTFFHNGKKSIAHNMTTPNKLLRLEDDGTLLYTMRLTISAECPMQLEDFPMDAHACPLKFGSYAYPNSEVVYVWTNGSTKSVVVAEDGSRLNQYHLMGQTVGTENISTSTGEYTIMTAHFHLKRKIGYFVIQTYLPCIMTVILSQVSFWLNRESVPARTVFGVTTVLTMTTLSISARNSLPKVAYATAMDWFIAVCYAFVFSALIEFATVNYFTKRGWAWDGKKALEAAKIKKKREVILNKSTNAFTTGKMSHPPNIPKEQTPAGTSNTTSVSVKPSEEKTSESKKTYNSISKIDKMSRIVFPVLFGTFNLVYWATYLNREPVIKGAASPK
Sequence of human recombinant GABAA α5β3γ2 receptor (P28472 26-473 partner): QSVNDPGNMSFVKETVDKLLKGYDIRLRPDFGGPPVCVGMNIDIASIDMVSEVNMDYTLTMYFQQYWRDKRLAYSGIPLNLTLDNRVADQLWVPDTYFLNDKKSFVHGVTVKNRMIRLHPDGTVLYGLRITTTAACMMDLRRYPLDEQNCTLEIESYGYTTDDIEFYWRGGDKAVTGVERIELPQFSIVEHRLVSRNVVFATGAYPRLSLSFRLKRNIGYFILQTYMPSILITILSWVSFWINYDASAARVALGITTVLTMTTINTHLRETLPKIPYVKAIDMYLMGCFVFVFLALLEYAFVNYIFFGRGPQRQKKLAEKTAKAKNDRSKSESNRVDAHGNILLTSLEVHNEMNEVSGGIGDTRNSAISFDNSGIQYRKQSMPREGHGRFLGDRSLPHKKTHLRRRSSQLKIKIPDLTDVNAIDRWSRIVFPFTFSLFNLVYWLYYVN
Sequence of human recombinant GABAA α5β3γ2 receptor (P18507 40-475): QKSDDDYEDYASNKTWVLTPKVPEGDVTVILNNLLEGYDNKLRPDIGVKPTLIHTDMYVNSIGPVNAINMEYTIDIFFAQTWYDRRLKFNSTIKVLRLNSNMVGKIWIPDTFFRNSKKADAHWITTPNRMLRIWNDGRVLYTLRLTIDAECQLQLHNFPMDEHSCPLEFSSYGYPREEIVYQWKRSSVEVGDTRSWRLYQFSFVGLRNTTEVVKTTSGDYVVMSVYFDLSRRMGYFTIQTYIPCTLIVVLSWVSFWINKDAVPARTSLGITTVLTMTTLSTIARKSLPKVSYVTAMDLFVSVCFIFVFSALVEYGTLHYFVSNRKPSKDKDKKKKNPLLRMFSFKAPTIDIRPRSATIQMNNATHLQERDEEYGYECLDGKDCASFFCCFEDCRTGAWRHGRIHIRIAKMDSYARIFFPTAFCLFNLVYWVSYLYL

pKi	SMILES
8.96	CC(=O)N1CCc2cc(OCc3c(C)nnn3-c3ccc(C(F)F)nc3)ncc2C1 [Example 55, 1-[6-({1-[6-(difluoromethyl)pyridin-3-yl]-4-methyl-1H-1,2,3-triazol-5-yl}methoxy)-3,4 dihydro-2,7-naphthyridin-2(1H)-yl]ethanone]
7.66	CC(=O)N1CCc2cc(OCc3c(-c4ccc(C)nc4)nnn3C)ncc2C1 [Example 60, 1-(6-{[1-methyl-4-(6-methylpyridin-3-yl)-1H-1,2,3-triazol-5-yl]methoxy}-1,2,3,4-tetrahydro-2,7-naphthyridin-2-yl)ethan-1-one]
7.60	CC(=O)N1CCc2cc(OCc3c(C)nnn3-c3ccc(C(F)(F)F)nc3)ncc2C1 [Example 47, 1-[6-({4-methyl-1-[6-(trifluoromethyl)pyridin-3-yl]-1H-1,2,3-triazol-5-yl}methoxy)-1,2,3,4-tetrahydro-2,7-naphthyridin-2-yl]ethan-1-one]
8.77	CC(=O)N1CCc2cc(OCc3c(-c4ccc(C)nc4)noc3C)ncc2C1 [Example 1, 1-[6-{[5-methyl-3-(6-methylpyridin-3-yl)-1,2-oxazol-4-yl]methoxy}-3,4-dihydro-2,7-naphthyridin-2(1H)-yl]ethanone]
7.52	Cc1ccc(-n2nnc(C)c2COc2cc3c(cn2)CN(C(=O)C(C)C)CC3)cn1 [Example 39, 2-methyl-1-(6-{[4-methyl-1-(6-methylpyridin-3-yl)-1H-1,2,3-triazol-5-yl]methoxy}-1,2,3,4-tetrahydro-2,7-naphthyridin-2-yl)propan-1-one]
7.80	Cc1ccc(-c2noc(C)c2COc2cc3c(cn2)CN(C(=O)C2CCS(=O)(=O)CC2)CC3)cn1 [Example 8, 4-(6-{[5-methyl-3-(6-methylpyridin-3-yl)-1,2-oxazol-4-yl]methoxy}-1,2,3,4-tetrahydro-2,7-naphthyridine-2-carbonyl)-1lambda6-thiane-1,1-dione]
8.22	CCC(=O)N1CCc2cc(OCc3c(-c4ccc(C)nc4)noc3C)nnc2C1 [Example 29, 1-(3-{[5-methyl-3-(6-methylpyridin-3-yl)-1,2-oxazol-4-yl]methoxy}-5H,6H,7H,8H-pyrido[3,4-c]pyridazin-7-yl)propan-1-one]
8.00	Cc1ccc(-c2noc(C)c2COc2cc3c(cn2)CN(C(=O)c2ccncc2)CC3)cn1 [Example 9, 6-{[5-methyl-3-(6-methylpyridin-3-yl)-1,2-oxazol-4-yl]methoxy}-2-(pyridine-4-carbonyl)-1,2,3,4-tetrahydro-2,7-naphthyridine]
8.09	CC(=O)N1CCc2cc(OCc3c(-c4ccc(C(F)(F)F)nc4)noc3C)nnc2C1 [Example 34, 1-[3-({5-methyl-3-[6-(trifluoromethyl)pyridin-3-yl]-1,2-oxazol-4-yl}methoxy)-5H,6H,7H,8H-pyrido[3,4-c]pyridazin-7-yl]ethan-1-one]
8.46	Cc1ccc(-c2noc(C)c2COc2cc3c(cn2)CN(C(=O)CS(C)(=O)=O)CC3)cn1 [Example 5, 2-methanesulfonyl-1-(6-{[5-methyl-3-(6-methylpyridin-3-yl)-1,2-oxazol-4-yl]methoxy}-1,2,3,4-tetrahydro-2,7-naphthyridin-2-yl)ethan-1-one]
7.48	CCC(=O)N1CCc2cc(OCc3c(C)nnn3-c3ccc(C(F)(F)F)nc3)ncc2C1 [Example 48, 1-[6-({4-methyl-1-[6-(trifluoromethyl)pyridin-3-yl]-1H-1,2,3-triazol-5-yl}methoxy)-1,2,3,4-tetrahydro-2,7-naphthyridin-2-yl]propan-1-one]
8.05	Cc1ccc(-c2noc(C)c2COc2cc3c(cn2)CN(C(=O)C2CCC(=O)N(C)C2)CC3)cn1 (stereo not drawn) [Example 20, 1-methyl-5-(6-{[5-methyl-3-(6-methylpyridin-3-yl)-1,2-oxazol-4-yl]methoxy}-1,2,3,4-tetrahydro-2,7-naphthyridine-2-carbonyl)piperidin-2-one]
7.89	Cc1ccc(-c2noc(C)c2COc2cc3c(nn2)CN(C(=O)N2CCOCC2)CC3)cn1 [Example 26, 4-(3-{[5-methyl-3-(6-methylpyridin-3-yl)-1,2-oxazol-4-yl]methoxy}-5H,6H,7H,8H-pyrido[3,4-c]pyridazine-7-carbonyl)morpholine]
7.36	Cc1nnn(-c2ccc(C(F)(F)F)nc2)c1COc1cc2c(cn1)CN(C(=O)C(C)C)CC2 [Example 50, 2-methyl-1-[6-({4-methyl-1-[6-(trifluoromethyl)pyridin-3-yl]-1H-1,2,3-triazol-5-yl}methoxy)-1,2,3,4-tetrahydro-2,7-naphthyridin-2-yl]propan-1-one]
8.24	Cc1ccc(-c2noc(C)c2COc2cc3c(cn2)CN(C(=O)[C@H]2CCC(=O)N2C)CC3)cn1 [Example 21, (5R)-1-methyl-5-(6-{[5-methyl-3-(6-methylpyridin-3-yl)-1,2-oxazol-4-yl]methoxy}-1,2,3,4-tetrahydro-2,7-naphthyridine-2-carbonyl)pyrrolidin-2-one]
8.01	CC(=O)N1CCc2cc(OCc3c(-c4ccc(C(F)(F)F)nc4)noc3C)ncc2C1 [Example 4, 1-[6-({5-methyl-3-[6-(trifluoromethyl)pyridin-3-yl]-1,2-oxazol-4-yl}methoxy)-3,4-dihydro-2,7-naphthyridin-2(1H)-yl]ethanone]
7.66	Cc1ccc(-n2nnc(C)c2COc2cc3c(cn2)CN(C(=O)C2CC2)CC3)cn1 [Example 44, 2-cyclopropanecarbonyl-6-{[4-methyl-1-(6-methylpyridin-3-yl)-1H-1,2,3-triazol-5-yl]methoxy}-1,2,3,4-tetrahydro-2,7-naphthyridine]

SMILES	pKi
Cc1nnn(-c2ccc(C(F)F)nc2)c1COc1cc2c(cn1)CN(C(=O)CF)CC2 [Example 57, 2-fluoro-1-[6-({4-methyl-1-[6-(difluoromethyl)pyridin-3-yl]-1H-1,2,3-triazol-5-yl}methoxy)-1,2,3,4-tetrahydro-2,7-naphthyridin-2-yl]ethan-1-one]	9.05
